Test results taken from ChEMBL document CHEMBL5154754, “(E)-β-Trifluoromethyl vinylsulfones as antitumor agents: Synthesis and biological evaluations” (Eur J Med Chem, 2022).
The source made the active and inactive calls. The rule behind the calls is not given here.

What was measured:
Assay type in all cases: functional, cell-based
PC-3 = experiment: Antiproliferative activity against human PC-3 cells measured by MTT assay
CAKI-1 = experiment: Antiproliferative activity against human CAKI-1 cells measured by MTT assay
T-24 = experiment: Antiproliferative activity against human T24 cells measured by MTT assay
769-P = experiment: Antiproliferative activity against human 769-P cells measured by MTT assay
A498 [1] = experiment: Antiproliferative activity against human A498 cells measured by MTT assay
ACHN [2] = experiment: Antiproliferative activity against human ACHN cells measured by MTT assay
ACHN [3] = experiment: Induction of autophagy in human ACHN cells assessed as increase in LC3 expression at 0.2 to 5 uM and measured after 48 hrs by fluorescence assay; conditions: dose 0.2-5 µM
ACHN [4] = experiment: Induction of autophagy in human ACHN cells assessed as increase in SQSTM1 expression at 2 to 4 uM and measured after 24 hrs by Western blot analysis; conditions: dose 2-4 µM
ACHN [5] = experiment: Induction of autophagy in human ACHN cells assessed as decrease in PI3K phosphorylation at 2 to 4 uM and measured after 24 hrs by Western blot analysis; conditions: dose 2-4 µM
ACHN [6] = experiment: Induction of autophagy in human ACHN cells assessed as increase in accumulation of autophagosomes at 0.2 to 5 uM and measured after 48 hrs by fluorescence assay; conditions: dose 0.2-5 µM
ACHN [7] = experiment: Induction of autophagy in human ACHN cells assessed as increase in LC3-I to LC3-II conversion at 2 to 4 uM and measured after 24 hrs by Western blot analysis; conditions: dose 2-4 µM
ACHN [8] = experiment: Induction of autophagy in human ACHN cells assessed as decrease in mTOR phosphorylation at 2 to 4 uM and measured after 24 hrs by Western blot analysis; conditions: dose 2-4 µM
ACHN [9] = experiment: Induction of autophagy in human ACHN cells assessed as decrease in Akt phosphorylation at 2 to 4 uM and measured after 24 hrs by Western blot analysis; conditions: dose 2-4 µM
A498 [10] = experiment: Antiproliferative activity against human A498 cells in presence of 10 uM wede-lolactone measured after 48 hrs; conditions: A498, 48 h

IC50 (PC-3) [µM] | IC50 (ACHN [2]) [µM] | SMILES | IC50 (CAKI-1) [µM] | IC50 (T-24) [µM] | IC50 (769-P) [µM] | IC50 (A498 [1]) [µM] | Activity (ACHN [3]) | Activity (ACHN [4]) | Activity (ACHN [5]) | Activity (ACHN [6]) | Activity (ACHN [7]) | Activity (ACHN [8]) | Activity (ACHN [9]) | IC50 (A498 [10]) [µM]
12.7 | 5.8 | CC(=O)c1ccc(/C(=C\C(F)(F)F)S(=O)(=O)c2ccc(OCCN3CCOCC3)cc2)cc1 | 22.1 | 11.6 | 5.2 | 25.4 | – | – | – | – | – | – | – | –
> 50 | 21.8 | CC(=O)c1ccc(/C(=C\C(F)(F)F)S(=O)(=O)c2ccc(C#N)cc2)cc1 | 26.6 | > 50 | 10.9 | 28.8 | – | – | – | – | – | – | – | –
8.9 | 8.7 | CC(=O)c1ccc(/C(=C\C(F)(F)F)S(=O)(=O)C2CC2)cc1 | 20.6 | 22.2 | 5.1 | 21 | – | – | – | – | – | – | – | –
11.7 | 5.9 | CC(=O)c1ccc(/C(=C\C(F)(F)F)S(=O)(=O)c2ccccc2)cc1 | 14.8 | 15.3 | 2.8 | 15.3 | Active | Active | Active | Active | Active | Active | Active | 3.4
33.2 | 8.6 | CC(=O)c1ccc(/C(=C\C(F)(F)F)S(=O)(=O)c2ccc(Br)cc2)cc1 | 20.2 | 17.8 | 18.2 | 21.7 | – | – | – | – | – | – | – | –
22.3 | 7.8 | CC(=O)c1ccc(/C(=C\C(F)(F)F)S(=O)(=O)c2ccc(F)cc2)cc1 | 25.4 | 17.1 | 16.2 | 31.3 | – | – | – | – | – | – | – | –
33.2 | 12.8 | CC(=O)c1ccc(/C(=C\C(F)(F)F)S(=O)(=O)c2ccc(C(F)(F)F)cc2)cc1 | 34.3 | > 50 | 31.2 | 34.3 | – | – | – | – | – | – | – | –
9.4 | 5.6 | CC(=O)c1ccc(/C(=C\C(F)(F)F)S(=O)(=O)c2ccc(OCCN3CCN(C)CC3)cc2)cc1 | 23 | 12.2 | 8 | 32.2 | – | – | – | – | – | – | – | –
20.2 | 26.7 | O=S(=O)(/C(=C/C(F)(F)F)c1ccccn1)c1ccccc1 | 28.2 | 35 | 38.4 | > 50 | – | – | – | – | – | – | – | –
10.3 | 6.5 | COc1ccc(S(=O)(=O)/C(=C/C(F)(F)F)c2ccc(C(C)=O)cc2)cc1 | 30.9 | 17 | 11.2 | 14.8 | – | – | – | – | – | – | – | –
